According to patent US20140242093A1, “METHODS AND COMPOSITIONS FOR MODULATING THE INNATE IMMUNE RESPONSE AND/OR MYOGENESIS IN A MAMMALIAN SUBJECT” (FRED HUTCHINSON CANCER RESEARCH CENTER, priority 2011, published 2014):

System: control human primary myoblasts
Test: Expression microarray of primary myoblasts transduced with lentivirus carrying DUX4-fl, DUX4-s or GFP
Experimental: Primary human myoblasts were collected and cultured as previously described (Snider et al., 2010). Primary myoblasts were maintained at or below 70% confluency for proliferation. For differentiation, cells were allowed to reach 95-100% confluency in growth medium. Once confluency was reached, the cells were changed to differentiation medium (F10 media supplemented with 1% horse serum, 10 μg/mL insulin, and 10 μg/mL transferrin, penicillin/streptomycin) and maintained for 4 days. Human RD cells were grown in DMEM in 10% bovine calf serum (Hyclone) and penicillin/streptomycin. The primary myoblasts were transduced with lentivirus carrying DUX-fl, DUX4- or GFP (MOI=15).
Expression microarrays were performed on the transduced cells at 24 hours after transduction as follows. […] Samples were analyzed by Illumina Human Whole Genome microarrays. Probe intensities were corrected, normalized, and summarized by the Lumi package of Bioconductor (Du et al., 2008). Differentially expressed genes were identified by the LIMMA package of Bioconductor (Wettenhall and Smyth, 2004). Gene set enrichment analysis (GSEA) was performed using the Bioconductor GOstats package (Falcon and Gentleman, 2007).

[1] = 3-fold criteria (>1.584 log2-fold change and FDR<0.01)

DUX4-fl: full-length DUX4 protein (SEQ ID NO:110), expressed from lentiviral or pCS2 vectors or in vitro translated
number of genes with increased expression: 1071 genes
number of genes with decreased expression (2-fold change and FDR<0.01 vs lenti-GFP, 24 hours after transduction): 837 genes
number of genes decreased [1]: 244 genes
number of genes increased [1]: 466 genes
BQ437417 (no symbol given) expression fc (Refseq BQ437417, cultured human skeletal muscle): −2.514
fc of ACVRL1 (expression array) (Refseq NM_000020.1): −1.01
fc of C3 (expression array) (Refseq NM_000064.1): −1
CA2 expression fc (Refseq NM_000067.1): 6.091
fc of COL1A1 (expression array) (Refseq NM_000088.3): −0.2992
CST3 fc (Refseq NM_000099.2): −1.131
ENG fc (Refseq NM_000118.1): −1.105
fc of GAMT (expression array) (Refseq NM_000156.4): −1.021
GBE1 fc (Refseq NM_000158.2): −1.129
fc of IDS (expression array) (Refseq NM_000202.3): −1.025
KCNA1 expression fc (Refseq NM_000217.2): 1.832
SGCG expression fc (Refseq NM_000231.1): 1.863
NP expression fc (Refseq NM_000270.1): 6.961
fc of PTEN (expression array) (Refseq NM_000314.4): −1.031
SLC3A1 expression fc (Refseq NM_000341.2): 2.736
SOX9 expression fc (Refseq NM_000346.2): 3.099
fc of PAFAH1B1 (expression array) (Refseq NM_000430.2): −0.3583
HBA2 expression fc (Refseq NM_000517.3): 4.721
fc of HBB (expression array) (Refseq NM_000518.4): −0.354
HBA1 expression fc (Refseq NM_000558.3): 4.787
IL8 expression fc (Refseq NM_000584.2, cultured human skeletal muscle): −3.885
fc of IL15 (expression array) (Refseq NM_000585.2): −1.013
TAP1 expression fc (Refseq NM_000593.5, cultured human skeletal muscle): −3.265
fc of IL6 (expression array) (Refseq NM_000600.1): −0.8024
IL10RB fc (Refseq NM_000628.3): −1.108
fc of ALDH2 (expression array) (Refseq NM_000690.2): −1.011
fc of ANXA1 (expression array) (Refseq NM_000700.1): −1.001
fc of CYP2J2 (expression array) (Refseq NM_000775.2): −0.06948
fc of GAS6 (expression array) (Refseq NM_000820.1): −1.026
fc of MME (expression array) (Refseq NM_000902.3): −1.046
P4HB fc (Refseq NM_000918.3): −1.109
PTGFR fc (Refseq NM_000959.3): −1.089
TOP2A fc (Refseq NM_001067.2): −1.157
TYMS fc (Refseq NM_001071.1): −1.125
VCAM1 expression fc (Refseq NM_001078.2, cultured human skeletal muscle): −3.014
ALOX15B fc (Refseq NM_001141.2): −1.071
ANPEP expression fc (Refseq NM_001150.1, cultured human skeletal muscle): −2.118
ART3 expression fc (Refseq NM_001179.3): 4.363
CA12 expression fc (Refseq NM_001218.3, cultured human skeletal muscle): −2.629
fc of CASP4 (expression array) (Refseq NM_001225.3): −1.059
CD68 fc (Refseq NM_001251.1): −1.091
CLIC1 fc (Refseq NM_001288.4): −1.083
CXADR expression fc (Refseq NM_001338.3): 2.494
DPYSL2 fc (Refseq NM_001386.4): −1.1
EMP3 fc (Refseq NM_001425.1): −1.139
FLT3LG fc (Refseq NM_001459.2): −1.065
CXCL1 expression fc (Refseq NM_001511.1, cultured human skeletal muscle): −3.523
fc of HAS1 (expression array) (Refseq NM_001523.1): −1.063
PRMT2 fc (Refseq NM_001535.2): −1.119
NDST1 fc (Refseq NM_001543.3): −1.069
IFIT2 expression fc (Refseq NM_001547.4, cultured human skeletal muscle): −4.315
IFIT1 expression fc (Refseq NM_001548.3, cultured human skeletal muscle): −4.379
IFIT3 expression fc (Refseq NM_001549.2, cultured human skeletal muscle): −3.857
IFRD1 expression fc (Refseq NM_001550.2): 2.99
IGFBP4 expression fc (Refseq NM_001552.2, cultured human skeletal muscle): −1.937
fc of CXCL10 (expression array) (Refseq NM_001565.2): −0.8766
AARS fc (Refseq NM_001605.2): −1.067
ACP2 fc (Refseq NM_001610.1): −1.126
TRIM23 expression fc (Refseq NM_001656.3): 2.235
ARSD fc (Refseq NM_001669.2): −1.079
fc of AUH (expression array) (Refseq NM_001698.1): −1.06
CFB expression fc (Refseq NM_001710.4, cultured human skeletal muscle): −5.623
C1R expression fc (Refseq NM_001733.4, cultured human skeletal muscle): −2.829
CAV1 fc (Refseq NM_001753.3): −1.097
fc of RUNX1 (expression array) (Refseq NM_001754.3): −0.2108
fc of CCND2 (expression array) (Refseq NM_001759.2): −1.057
CD9 expression fc (Refseq NM_001769.2): 1.992
CDH11 fc (Refseq NM_001797.2): −1.174
HBEGF expression fc (Refseq NM_001945.1): 3.868
ECGF1 expression fc (Refseq NM_001953.2, cultured human skeletal muscle): −4.299
EGR1 expression fc (Refseq NM_001964.2): 3.749
ETV6 fc (Refseq NM_001987.4): −1.1
EYA3 expression fc (Refseq NM_001990.2): 2.572
fc of ACSL1 (expression array) (Refseq NM_001995.2): −1.015
FES fc (Refseq NM_002005.2): −1.108
FTH1 expression fc (Refseq NM_002032.2, cultured human skeletal muscle): −2.029
